Measurements taken from patent publication US4505854A, “Optically active dipeptides and the use thereof as tissue dissolving and histolytic agent in human beings” (Nattermann & Cie GmbH, priority 1981, dated 1985).
Counter-ions that a name gives are not always drawn.

Tests used:
healthy guineapig skin = conditions: for activity (induction of necrosis, activation of macrophages): comparison of stereoisomeric 2-phenylglycyl-2-phenylglycine dipeptides; for histolysis / local changes at the administration site: 25 or 50 mg/animal (control 10.7 mg/animal), 7 days
Description: They were then autopsied and the injection sites (skin and muscle) were subjected to pathological-anatomical and pathological-histological evaluation.
This is a chemotactic and activating action on macrophages, which also has a tissue dissolving effect. No systemic toxic symptoms or clinically detectable changes could be observed in any of the experimental animals.

[1] = acute toxicity, intravenous administration to rodents
[2] = local administration, guineapig skin

SMILES: N[C@@H](C(=O)N[C@@H](C(=O)O)c1ccccc1)c1ccccc1
- activity (induction of necrosis, activation of macrophages) (healthy guineapig skin): outstanding properties to induce necrosis and activate macrophages
- general tolerance / systemic toxic symptoms (healthy guineapig skin; in vivo): no indications of general intolerance
- macrophage and giant cell infiltration at the administration site (healthy guineapig skin; [2]): massive infiltration of macrophages and giant cells
- histolysis / local changes at the administration site (healthy guineapig skin; [2]): Local and sharply delineated histolysis
- LD50 ([1]; acute experiment, administered intravenously (to rodents)): 1,000 mg/kg
- toxicity, times lower than prior dipeptides of essential aminoacids ([1]; compared with 300 mg/kg intravenously (rodents)): 3 times lower

SMILES: N[C@H](C(=O)N[C@H](C(=O)O)c1ccccc1)c1ccccc1 [L-2-phenylglycyl-L-2-phenylglycine, reference compound]
- activity (induction of necrosis, activation of macrophages) (healthy guineapig skin): no activity

SMILES: NC(C(=O)NC(C(=O)O)c1ccccc1)c1ccccc1 (mixture of isomers) [reference compound]
- activity (induction of necrosis, activation of macrophages) (healthy guineapig skin): only a very low activity
- histolysis / local changes at the administration site (healthy guineapig skin; [2]): no local changes

SMILES: NCC(=O)O [glycine hydrobromide, reference compound]
- histolysis / local changes at the administration site (healthy guineapig skin; [2]): no local changes
